Molecular target: T1, PadL (NpPadL) (Novosphingobium pentaromativorans, UniProt G6EAN6)
T1 construct: gene NSU_1434; padL expressed from pET-28b (T7, IPTG) in E. coli BL21 cells; also pHGE-Ptac complementation of delta-padL US6-1; signal peptide (residues 1-45) removed only in the model
T1 sequence (G6EAN6 46-450): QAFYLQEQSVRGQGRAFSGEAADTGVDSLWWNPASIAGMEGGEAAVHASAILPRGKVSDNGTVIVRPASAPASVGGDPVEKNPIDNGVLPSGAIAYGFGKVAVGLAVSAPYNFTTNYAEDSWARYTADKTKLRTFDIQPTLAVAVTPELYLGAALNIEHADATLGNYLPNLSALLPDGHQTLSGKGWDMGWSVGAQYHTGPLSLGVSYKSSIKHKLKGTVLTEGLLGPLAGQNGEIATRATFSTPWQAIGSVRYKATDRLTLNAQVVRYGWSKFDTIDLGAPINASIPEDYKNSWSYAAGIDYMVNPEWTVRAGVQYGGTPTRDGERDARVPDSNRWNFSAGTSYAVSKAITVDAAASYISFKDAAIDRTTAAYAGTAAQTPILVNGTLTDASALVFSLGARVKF
Experiment: uptake by intact cells, confocal fluorescence of intracellular phenanthrene
Assay type: cell-based
Conditions: E. coli BL21/pET28b-padL, LB medium, 200 mg/L phenanthrene, IPTG induction, 37 °C

c1ccc2c(c1)ccc1ccccc12 [phenanthrene]
uptake by intact cells, confocal fluorescence of intracellular phenanthrene: E. coli BL21 can be endowed with an ability to assimilate phenanthrene after heterologous expression of PadL

Reference: article PMC11837497, “A novel FadL family outer membrane transporter is involved in the uptake of polycyclic aromatic hydrocarbons” (Applied and Environmental Microbiology, 2025)
